molecular target: T1, cloned human ETA receptor (Homo sapiens, UniProt P25101); test: Test A binding assay: competition with 125I-ET-1, binding to ETA receptors; settings: [125I]Tyr13 ET-1 displacement, 37° C., 2 hours
T1 sequence (P25101 21-427): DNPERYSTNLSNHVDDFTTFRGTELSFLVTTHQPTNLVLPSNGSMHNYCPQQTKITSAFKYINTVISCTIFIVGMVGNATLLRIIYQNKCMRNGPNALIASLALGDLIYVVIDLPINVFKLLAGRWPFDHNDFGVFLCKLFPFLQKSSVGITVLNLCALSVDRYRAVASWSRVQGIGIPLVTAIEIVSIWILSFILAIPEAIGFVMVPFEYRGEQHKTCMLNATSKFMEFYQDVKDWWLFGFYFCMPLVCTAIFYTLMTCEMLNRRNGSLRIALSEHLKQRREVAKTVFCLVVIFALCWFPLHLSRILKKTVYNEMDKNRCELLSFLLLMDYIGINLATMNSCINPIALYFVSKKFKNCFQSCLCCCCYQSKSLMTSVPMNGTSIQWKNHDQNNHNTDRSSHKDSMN
Protocol: Competition between test compounds and ^125I-ET-1 binding to human endothelin receptors is determined as follows.
25 ul of a 30 pM solution of [^125I]Tyr^13 ET-1 (specific activity 2,200 Ci/mM) is mixed with 25 μl samples of test compound (final concentrations in the range 0.1 nM-50.000 nM). 200 μl of a solution containing cloned human ETA receptor (0.75 pmoles receptor protein/ml). 50 mM Tris, 0.5 mM CaCl2, 0.1% human serum albumen. 0.1% bacitracin. 0.05% Tween 20, pH 7.4 is added. The solution is mixed at 37° C. for 2 hours. After the incubation, the unbound ligand is separated from receptor bound ligand by filtration with a Brandel cell harvester, followed by three washes of buffer. Filter papers are counted for radioactivity, and the IC50 (the concentration of test compound at which 50% of the radio-labelled compound is unbound) determined for the concentration range tested.

IC50 [nM]	SMILES
< 500	COc1cc(C)ccc1S(=O)(=O)NC(=O)C(c1ccc2c(c1)OCO2)c1cn(C)c2cc(F)ccc12 (centres unmarked) [Example 83]
< 500	COc1cc(C)ccc1S(=O)(=O)NC(=O)C(c1ccc2c(c1)OCO2)c1cn(C)c2cc(C(C)=O)ccc12 (centres unmarked) [Example 101, 6-Acetyl-3-{1-(1,3-benzodioxol-5-yl)-2-[(2-methoxy-4-methylphenyl)sulfonamido]-2-oxoethyl}-1-methyl-1H-indole]
< 500	COCCn1cc(C(C(=O)NS(=O)(=O)c2ccc(C)cc2OC)c2ccc3c(c2)OCO3)c2ccc(C(N)=O)cc21 (centres unmarked) [Example 109, 3-{1-(1,3-benzodioxol-5-yl)-2-[(4-methyl-2-methoxyphenyl)sulfonamido]-2-oxoethyl}-1-(2-methoxyethyl)-1H-6-indolecarboxamide]
< 500	COc1cc(C)ccc1S(=O)(=O)NC(=O)C(c1ccc2c(c1)OCO2)c1cn(C)c2cc(C(=O)O)ccc12 (centres unmarked) [Example 17, 3-{1-(1,3-benzodioxol-5-yl)-2-[(2-methoxy-4-methylphenyl)sulfonamido]-2-oxoethyl}-1-methyl-1H-6-indolecarboxylic acid]
< 500	COc1cc(C)ccc1S(=O)(=O)NC(=O)C(c1ccc2c(c1)OCO2)c1cn(C)c2cc(CO)ccc12 (centres unmarked) [Example 65, 3-{1-(1,3-Benzodioxol-5-yl)-2-[(2-methoxy-4-methylphenyl)sulfonamido]-2-oxoethyl}-6-(hydroxymethyl)-1-methyl-1H-indole]

test system: not given; test: not given; settings: not given

melting point	SMILES
235 °C (dec.)	COc1cc(C)ccc1S(=O)(=O)NC(=O)C(c1cc(OC)c2c(c1)OCO2)c1cn(C)c2cc(Br)ccc12 (centres unmarked) [Example 92, 6-Bromo-3-{1-(7-methoxy-1,3-benzodioxol-5-yl)-2-[(2-methoxy-4-methylphenyl)sulfonamido]-2-oxoethyl}-1-methyl-1H-indole]
145 to 150 °C	COc1cc(C)ccc1S(=O)(=O)NC(=O)C(c1ccc2c(c1)OCO2)c1cn(C)c2ccc(Br)cc12 (centres unmarked) [Example 79, 3-{1-(1,3-Benzodioxol-5-yl)-2-[(2-methoxy-4-methylphenyl)sulfonamido]-2-oxoethyl}-5-bromo-1-methyl-1H-indole]
145 to 150 °C (dec.)	COc1cc(C)ccc1S(=O)(=O)NC(=O)C(c1ccc2c(c1)OCO2)c1cn(C)c2cc(Br)ccc12 (centres unmarked) [Example 85, 3-{1-(1,3-benzodioxol-5-yl)-2-[(2-methoxy-4-methylphenyl)sulfonamido]-2-oxoethyl}-6-bromo-1-methyl-1H-indole]

Continued, compound first:

SMILES	melting point
Cn1cc(C(C(=O)O)c2ccc3c(c2)OCO3)c2cc(Br)ccc21 (centres unmarked) [Example 68, 2-(1,3-Benzodioxol-5-yl)-2-(5-bromo-1-methyl-1H-3-indolyl)acetic acid]	191 to 193 °C
Cc1ccc(S(=O)(=O)NC(=O)C(c2cc3c(cc2Cl)OCO3)c2cn(C)c3cc(CO)ccc23)cc1 (centres unmarked) [Example 99, 3-{1-(6-Chloro-1,3-benzodioxol-5-yl)-2-[(4-methylphenyl)sulfonamido]-2-oxoethyl}-6-(hydroxymethyl)-1-methyl-1H-indole]	207 to 209 °C

test system: neointimal formation; test: not given; settings: S. Douglas et al. Circ Res, 75, 1994; cited from earlier work

SMILES	reduction in neointimal formation relative to control animals [%]
CCCOc1ccc2c(c1)[C@@H](c1ccc(OC)cc1OCC(=O)O)[C@H](C(=O)O)[C@H]2c1ccc2c(c1)OCO2 [SB-209670]	50

From patent US6384070B2, “Indole derivatives useful as endothelin receptor antagonists” (Pfizer Inc., priority 1996, dated 2002)
